Values quoted from earlier work, collected in patent publication US20120283306A1, “MOUSE MODEL FOR AVM” (Georgia Health Sciences University, priority 2011, published 2012).

Conditions: mouse, in vivo

Cc1ccc(-c2cc(C(F)(F)F)nn2-c2ccc(S(N)(=O)=O)cc2)cc1 [celecoxib]
tolerability in mice: well tolerated
